Assay results from patent US20250127844A1, “PEPTIDE HAVING HAIR LOSS PREVENTION OR HAIR GROWTH PROMOTION ACTIVITY AND USE THEREOF” (CAREGEN CO., LTD., priority 2021, published 2025).

Columns and labels:
[1] = system: Keratin 19; test: RT-PCR of Keratin 19 expression in HHORSC; format: cell-based, human; conditions: peptide 500 nM, 5 μM, 50 μM, 72 hours, vs untreated control, FIG. 6
Experimental: (§1) Specifically, HHORSC (human hair outer root sheath cell, Sciencell, USA) was seeded in a 6-well culture plate at 4×10^5 cells/well and then cultured in MSC complete medium (mesenchymal stem cell complete media) for 24 hours. Next, the medium was replaced with serum free MSC complete medium and cultured again for 24 hours. Then, the HHORSC was treated with the peptide of SEQ ID NO: 1 prepared in the Preparation Example at concentrations of 500 nM, 5 μM, and 50 μM, respectively, and cultured at 37° C. for 72 hours. As a positive control, EGF was treated at a concentration of 50 nM, and as a negative control, HHORSC without any treatment was used. After washing with PBS, RNA was isolated by treating with 300 μ ? of easy blue (intron, Korea). Then, cDNA was synthesized using a cDNA synthesis kit (enzynomics, Korea) by quantification using nano drop, and PCR was performed using primers for Ha3-II, Keratin 14, and Keratin 19 (base sequences of primer are listed in Table 3 below) and PCR premix (enzynomics, Korea). Electrophoresis was performed on a 1.5% agarose gel, and the mRNAs of Ha3-II, Keratin 14, and Keratin 19 were detected using a band analysis system (Bio-Rad gel image system).

[2] = system: p-ERK; test: Western blotting of phosphorylated ERK in HHFDPC; format: cell-based, human; conditions: peptide 500 nM, 5 μM, 50 μM, 24 hours, vs untreated control, FIG. 2
Experimental: (§2) First, phosphorylated forms of AKT and ERK, which act as signaling molecules related to the proliferation of HHFDPC, were confirmed through Western blotting. Specifically, HHFDPC as in [Experiment Example 1-1] above was seeded at 4×10^5 cells/well in a 6-well culture plate, cultured in MSC complete medium (mesenchymal stem cell complete media) for 24 hours, and then the medium was replaced with serum free MSC complete medium and cultured for another 24 hours. Then, the HHFDPC was treated with the peptide of SEQ ID NO: 1 prepared in the Preparation Example at concentrations of 500 nM, 5 μM, and 50 μM, respectively, and cultured at 37° C. for 24 hours. As a positive control, minoxidil was treated at a concentration of 1 μM, and as a negative control, HHFDPC without any treatment was used. Then, Western blotting was performed to detect phosphorylated AKT and phosphorylated ERK. After washing with PBS, the cells were treated with 100 μ ? of lysis buffer to destroy cells, thereby obtaining cell lysate. After electrophoresis using a 10% SDS-PAGE gel, it was transferred to a PVDF membrane and blocked using 5% skim milk at room temperature for 30 minutes. […] After washing again with 0.1% PBS-T (0.1% Tween-20 in PBS) three times for 15 minutes each, p-AKT and p-ERK were detected by treatment with ECL solution (GE Healthcare, USA).

[3] = system: β-catenin; test: Western blotting of β-catenin moved to the nucleus in HHFDPC; format: cell-based, human; conditions: HHFDPC nuclear protein, peptide 500 nM, 5 μM, 50 μM, 24 hours, vs untreated control, FIG. 3
Experimental: In addition, in addition to p-AKT and p-ERK, in order to confirm the activation of β-catenin, which is known to affect cell proliferation and differentiation, whether β-catenin moved into the nucleus was confirmed through Western blotting. Specifically, the HHFDPC as in [Experiment Example 1-1] was seeded in a 6-well culture plate at an amount of 4×10^5 cells/well, cultured in MSC complete medium (mesenchymal stem cell complete media) for 24 hours. Next, the medium was replaced with serum free MSC complete medium and cultured again for 24 hours. Then, the HHFDPC was treated with the peptide of SEQ ID NO: 1 prepared in the Preparation Example at concentrations of 500 nM, 5 μM, and 50 μM, respectively, and cultured at 37° C. for 24 hours. As a positive control, minoxidil was treated at a concentration of 1 μM, and as a negative control, HHFDPC without any treatment was used. After washing with PBS, proteins in the nucleus were isolated using a nuclear protein extraction kit (Thermo scientific, USA). After electrophoresis using a 10% SDS-PAGE gel, it was transferred to a PVDF membrane and blocked using 5% skim milk at room temperature for 30 minutes. […] After washing again with 0.1% PBS-T (0.1% Tween-20 in PBS) three times for 15 minutes each, β-catenin was detected by treatment with ECL solution (GE Healthcare, USA).

[4] = system: LEF-1; test: RT-PCR of LEF-1 expression in HHFDPC; format: cell-based, human; conditions: peptide 500 nM, 5 μM, 50 μM, 24 hours, vs untreated control, FIG. 4
Experimental: (§3) Furthermore, in order to determine whether the β-catenin moves to the nucleus and is activated to affect proliferation and differentiation, whether the expression of LEF-1, c-Myc and cyclin D1 (cyclin D1), which act as downstream factors, increases with β-catenin activation was confirmed through RT-PCR. Specifically, in the same manner as the previous Western blotting experiment, HHFDPC cells were cultured, treated with the peptides of the Preparation Example of the present invention at concentrations of 500 nM, 5 μM, and 50 μM, respectively, and cultured at 37° C. for 24 hours. After washing the cells with PBS, RNA was isolated by treating them with 300 μ ? of easy blue (intron, Korea). Then, cDNA was synthesized using a cDNA synthesis kit (enzynomics, Korea) by quantifying it with nano drop, and PCR was performed using primers for LEF-1, c-Myc and cyclin D1 (base sequences of the primer are listed in Table 2 below) and PCR premix (enzynomics, Korea). Electrophoresis was performed on a 1.5% agarose gel, and then the mRNA of LEF-1, c-Myc, c-Myc and cyclin D1 was detected using a band analysis system (Bio-Rad gel image system).

[5] = system: DKK-1 protein; test: Western blotting of DKK-1 protein in DHT-treated HHFDPC; format: cell-based, human; conditions: HHFDPC with DHT 100 nM, peptide 500 nM, 5 μM, 50 μM, 24 hours, vs DHT-only negative control, FIG. 5
Experimental: DKK-1 protein (dickkopf-related protein 1) is a hair loss-related protein known to be highly expressed in individuals with hair loss, especially male pattern hair loss, and its expression is known to be promoted by hormones such as DHT (Dihydrotestosterone). Accordingly, the expression of DKK-1 protein was induced by treating HHFDPC cells with DHT together with the peptide according to the Preparation Example of the present invention, and then the expression level of DKK-1 was measured through Western blotting to determine whether there was an effect of suppressing the expression of DKK-1 protein.
Specifically, HHFDPC as in [Experiment Example 1-1] was seeded in a 6-well culture plate at 4×10^5 cells/well and then cultured in MSC complete medium (mesenchymal stem cell complete media) for 24 hours. Next, the medium was replaced with serum free MSC complete medium and cultured again for 24 hours. In addition, the HHFDPC was treated with the peptide of SEQ ID NO: 1 prepared in the Preparation Example at concentrations of 500 nM, 5 μM, and 50 μM, respectively, and at this time, DHT, an expression inducer of DKK-1 protein, was simultaneously treated at a concentration of 100 nM and then cultured at 37° C. for 24 hours. […] After washing again with 0.1% PBS-T (0.1% Tween-20 in PBS) three times for 15 minutes each, DKK-1 protein was detected by treatment with ECL solution (GE Healthcare, USA).

[6] = system: Ha3-II; test: RT-PCR of Ha3-II expression in HHORSC; format: cell-based, human; conditions: peptide 500 nM, 5 μM, 50 μM, 72 hours, vs untreated control, FIG. 6
Experimental: as §1

[7] = system: Keratin 14; test: RT-PCR of Keratin 14 expression in HHORSC; format: cell-based, human; conditions: peptide 500 nM, 5 μM, 50 μM, 72 hours, vs untreated control, FIG. 6
Experimental: as §1

[8] = system: p-AKT; test: Western blotting of phosphorylated AKT in HHFDPC; format: cell-based, human; conditions: peptide 500 nM, 5 μM, 50 μM, 24 hours, vs untreated control, FIG. 2
Experimental: as §2

[9] = system: MSX2; test: RT-PCR of MSX2 expression in HHGMC; format: cell-based, human; conditions: peptide 500 nM, 5 μM, 50 μM, 72 hours, vs untreated control, FIG. 7
Experimental: Specifically, HHGMC (human hair germinal matrix cell, Sciencell, USA) was seeded in a 6-well culture plate at 4×10^5 cells/well and then cultured in MSC complete medium (mesenchymal stem cell complete media) for 24 hours. Next, the medium was replaced with serum free MSC complete medium and cultured again for 24 hours. Then, the HHGMC was treated with the peptide of SEQ ID NO: 1 prepared in the Preparation Example at concentrations of 500 nM, 5 μM, and 50 μM, respectively, and cultured at 37° C. for 72 hours. As a positive control, EGF was treated at a concentration of 50 nM, and as a negative control, HHGMC without any treatment was used. After washing with PBS, RNA was isolated by treating with 300 μ ? of easy blue (intron, Korea). Next, cDNA was synthesized using a cDNA synthesis kit (enzynomics, Korea) by quantification using nano drop, and PCR was performed using primers for MSX2 (base sequences of primer are listed in Table 4 below) and PCR premix (enzynomics, Korea). Electrophoresis was performed on a 1.5% agarose gel, and MSX2 mRNA was detected using a band analysis system (Bio-Rad gel image system).

[10] = system: human hair follicle dermal papilla cells (HHFDPC); test: MTT proliferation of dermal papilla cells; format: cell-based; conditions: peptide 500 nM, 5 μM, 50 μM, 72 hours, vs untreated control, FIG. 1
Experimental: While culturing human hair follicle dermal papilla cells (HHFDPC), the absorbance was measured after treatment with the peptide of the present invention to confirm whether there was an effect of promoting the proliferation of the HHFDPC dermal papilla cells.
Specifically, HHFDPC (Sciencell, USA) was seeded at 4×10^3 cells/well in a 96-well culture plate, cultured in MSC complete medium (mesenchymal stem cell complete media, Sciencell, USA) for 24 hours, and then the medium was replaced with serum free MSC complete medium and cultured for another 24 hours. Then, the HHFDPC was treated with the peptide of SEQ ID NO: 1 prepared in the Preparation Example at concentrations of 500 nM, 5 μM, and 50 μM, respectively, and cultured at 37° C. for 72 hours. As a positive control, minoxidil was treated at a concentration of 1 μM, and as a negative control, HHFDPC without any treatment was used. Then, 10 μ ? of 5 mg/mL MTT solution was added and cultured in a 37° C. CO2 incubator for 4 hours to stain the cells. After removing the medium, the cells were treated with 100 μl of DMSO and shaken for 10 minutes, and the number of HHFDPC cells was confirmed by measuring absorbance at a wavelength of 540 nm using a spectrophotometer.

[11] = system: cyclin D1; test: RT-PCR of cyclin D1 expression in HHFDPC; format: cell-based, human; conditions: peptide 500 nM, 5 μM, 50 μM, 24 hours, vs untreated control, FIG. 4
Experimental: as §3

[12] = system: c-Myc; test: RT-PCR of c-Myc expression in HHFDPC; format: cell-based, human; conditions: peptide 500 nM, 5 μM, 50 μM, 24 hours, vs untreated control, FIG. 4
Experimental: as §3

## QHNQIRYFEE [peptide of the present invention]
[1]
  Keratin 19 mRNA: the amount of mRNA increased further
[2]
  phosphorylated ERK (p-ERK): phosphorylation was found to be increased
[3]
  β-catenin moved to the nucleus: migration due to activation of β-catenin increased
[4]
  LEF-1 mRNA: the amount of mRNA increased further
[5]
  amount of DKK-1 protein: the amount of DKK-1 protein was found to be reduced
[6]
  Ha3-II mRNA: the amount of mRNA increased further
[7]
  Keratin 14 mRNA: the amount of mRNA increased further
[8]
  phosphorylated AKT (p-AKT): phosphorylation was found to be increased
[9]
  MSX2 mRNA: the amount of mRNA increased further
[10]
  proliferation of HHFDPC (absorbance at 540 nm, MTT): proliferation of HHFDPC was promoted depending on the concentration of the treated peptide
[11]
  cyclin D1 mRNA: the amount of mRNA increased further
[12]
  c-Myc mRNA: the amount of mRNA increased further
